Assay results: PubChem BioAssay (NCI)
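These data come from cells grown in 96-well plates and exposed to compound for 48 hours at five concentrations. The concentration for 50% growth inhibition is given as GI50. The concentration for full growth arrest is given as TGI.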

Tests used:
Assay in all cases: NCI anticancer screen, dose series, 48 h
BT-549 breast = test system: BT-549 breast
M14 melanoma = test system: M14 melanoma
OVCAR-4 ovarian = test system: OVCAR-4 ovarian
IGROV1 ovarian = test system: IGROV1 ovarian
SNB-19 CNS = test system: SNB-19 CNS
SK-MEL-28 melanoma = test system: SK-MEL-28 melanoma
HL-60(TB) leukemia = test system: HL-60(TB) leukemia
HS 578T breast = test system: HS 578T breast
T-47D breast = test system: T-47D breast
SK-MEL-2 melanoma = test system: SK-MEL-2 melanoma

| Compound | GI50 (BT-549 breast) [µM] | TGI (BT-549 breast) [µM] | GI50 (M14 melanoma) [µM] | TGI (M14 melanoma) [µM] | GI50 (OVCAR-4 ovarian) [µM] | TGI (OVCAR-4 ovarian) [µM] | GI50 (IGROV1 ovarian) [µM] | TGI (IGROV1 ovarian) [µM] | GI50 (SNB-19 CNS) [µM] | TGI (SNB-19 CNS) [µM] | GI50 (SK-MEL-28 melanoma) [µM] | TGI (SK-MEL-28 melanoma) [µM] | GI50 (HL-60(TB) leukemia) [µM] | TGI (HL-60(TB) leukemia) [µM] | GI50 (HS 578T breast) [µM] | TGI (HS 578T breast) [µM] | GI50 (T-47D breast) [µM] | TGI (T-47D breast) [µM] | GI50 (SK-MEL-2 melanoma) [µM] | TGI (SK-MEL-2 melanoma) [µM] |
| --- | --- | --- | --- | --- | --- | --- | --- | --- | --- | --- | --- | --- | --- | --- | --- | --- | --- | --- | --- | --- |
| C#Cc1c(/C=C/C(=O)OCC)ccc2ccccc12 | 18.7 | 44.7 | 18.9 | 46 | 20.7 | 69.1 | 5.77 | 26.2 | 36.8 | > 100 | 13.7 | 39.7 | 10.6 | 26.1 | 27.2 | 83.2 | 42.8 | > 100 | – | – |
| CCN(CC)CC(O)CNc1c2ccc([N+](=O)[O-])cc2nc2cc(OC)c(OC)cc12 (centres undefined) | 1.81 | 3.85 | 0.368 | 1.55 | 0.162 | 0.574 | 0.305 | 1.51 | 0.24 | 1.31 | 0.47 | 1.93 | 2.06 | 6.81 | 0.728 | 5.09 | 0.369 | 1.62 | 0.256 | 0.659 |
| COc1c2ccoc2c(OC)c2oc(=O)ccc12 | – | > 100 | – | > 100 | – | > 100 | – | > 100 | – | > 100 | – | > 100 | – | > 100 | – | > 100 | – | > 100 | – | – |
| CC(C)(C)c1cc(-n2c(-c3ccc(Cl)cc3)nc3cc(C(=O)Nc4ccc(Cl)cc4)ccc32)n[nH]1 | 5.75 | > 100 | – | – | 6.11 | > 100 | 5.65 | > 100 | 4.1 | > 100 | 64.2 | > 100 | 3.18 | > 100 | 7.91 | 93 | 3.72 | > 100 | 2.89 | 9.58 |
| Cn1c2c(c3ccc([N+](=O)[O-])cc3c1=O)C(=O)c1ccccc1-2 | > 100 | > 100 | – | – | > 100 | > 100 | > 100 | > 100 | > 100 | > 100 | > 100 | > 100 | > 100 | > 100 | > 100 | > 100 | > 100 | > 100 | > 100 | > 100 |
| CNC(=O)c1ccccc1Nc1nc(Nc2cc(OC)c(OC)c(OC)c2)ncc1Br | 0.0704 | 1.17 | 0.0191 | 1.38 | 0.0287 | 2.4 | – | – | 0.12 | 2.53 | 0.0667 | 2.11 | 0.0245 | 0.181 | 0.0259 | 0.569 | 1.07 | 6.71 | 0.0171 | 0.0499 |
| Cc1csc(/C=C/C(=O)c2nnn(-c3ccnc4c(C(F)(F)F)cccc34)c2C)c1 | > 100 | > 100 | > 100 | > 100 | – | – | > 100 | > 100 | 72.8 | > 100 | 71.1 | > 100 | 29.7 | > 100 | > 100 | > 100 | 21.1 | > 100 | > 100 | > 100 |
